The results in this text go back to ChEMBL document CHEMBL1201862, “PubChem BioAssay data set” (2004).

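1) Cells in 96-well plates. 2) Compound, 48 h, 5 concentrations. 3) Linear interpolation between surrounding doses. 4) Unreached endpoint = highest concentration. Abbreviation: GI50, concentration required for 50% inhibition of growth.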 Calls of active or inactive are those of the source. Rule as the data show it: active = GI50 up to about 1.1 µM and inactive = higher.

Test systems include HCT-116; UACC-62; TK-10; CAKI-1; KM12; UACC-257; SK-MEL-2; LOX IMVI; T47D; SF-268; SK-MEL-28; SN12C; NCI-H522; IGROV-1; HOP-92; NCI-H23; SNB-75; A549; MDA-N; HCT-15.
Common to all, as to assay: NCI tumour cell line growth inhibition, 48 h

In the case of `CC(C)(Br)C(=O)C(Br)Br`, the GI50 was 4.26 µM (inactive) in the assay with HCT-116; 10.5 µM (inactive) with UACC-62; 9.04 µM (inactive) with TK-10; 1.95 µM (inactive) in the assay with CAKI-1; 16.8 µM (inactive) with KM12; 9.84 µM (inactive) with UACC-257. Further, the GI50 in the assay on SK-MEL-2 is 13 µM (inactive); in the assay on LOX IMVI, 4.86 µM (inactive); in the assay with T47D, 6.22 µM (inactive); with SF-268 it was 14 µM (inactive); in the assay on SK-MEL-28, 9.04 µM (inactive); with SN12C, > 24.4 µM (inactive). The GI50 in the assay with NCI-H522 was 1.67 µM (inactive); in the assay with IGROV-1, 8.22 µM (inactive); with HOP-92, 1.7 µM (inactive); in the assay with NCI-H23, 4.61 µM (inactive); with SNB-75, 13.7 µM (inactive); in the assay with A549, 16.6 µM (inactive). The GI50 with MDA-N is 5.3 µM (inactive).
For `COC(=O)NC(C(F)(F)F)(C(F)(F)F)P1(=O)OCCCO1`, the GI50 was 23.2 µM (inactive) with HCT-116; 15 µM (inactive) in the assay with UACC-62; 37.4 µM (inactive) in the assay on TK-10; 22.8 µM (inactive) with KM12; 16.4 µM (inactive) in the assay with LOX IMVI; 22.8 µM in the assay on HCT-15. The GI50 was 20.4 µM (inactive) in the assay on T47D; 25.7 µM (inactive) in the assay on SF-268; 35.6 µM (inactive) in the assay on SK-MEL-28; 34.8 µM (inactive) in the assay on SN12C; 14.5 µM (inactive) in the assay on NCI-H522; 22.3 µM (inactive) in the assay with IGROV-1. Besides, the GI50 was 35.8 µM (inactive) in the assay with HOP-92; 20.2 µM (inactive) in the assay on NCI-H23; 47.6 µM (inactive) in the assay with SNB-75; 38.5 µM (inactive) in the assay on A549; 23.2 µM (inactive) with MDA-N.
For the compound `OC[C@H]1CC(c2nn[nH]n2)[C@H](O)[C@@H]1O` (some centres not stated), the GI50 in the assay on HCT-116 is > 100 µM (inactive); with UACC-62, > 10 µM (inactive); in the assay with TK-10 it was > 100 µM (inactive); in the assay with KM12, > 100 µM (inactive); with LOX IMVI, > 100 µM (inactive); in the assay on HCT-15 it was above 100 µM. In addition, the GI50 in the assay with T47D, in the assay on SF-268, in the assay on SK-MEL-28, in the assay on SN12C, in the assay with NCI-H522 and in the assay with IGROV-1 was > 100 µM (inactive) in each case. The GI50 in the assay on HOP-92, with NCI-H23, in the assay on SNB-75, in the assay on A549 and in the assay on MDA-N was > 100 µM (inactive) throughout.
With `COc1cc(/C=C2\CC(C)C/C(=C\c3ccc(O)c(OC)c3)C2=O)ccc1O` (configuration not stated), the GI50 was 1.77 µM (inactive) in the assay with HCT-116; 1.85 µM (inactive) with UACC-62; 5.45 µM (inactive) in the assay on TK-10; 1.85 µM (inactive) with KM12; 3.87 µM (inactive) in the assay with UACC-257; 4.53 µM (inactive) in the assay on SK-MEL-2. Further, the GI50 with LOX IMVI is 2.29 µM (inactive); in the assay with HCT-15 it was 1.73 µM; in the assay on T47D, 1.6 µM (inactive); in the assay on SF-268, 4.31 µM (inactive); in the assay with SK-MEL-28 it was 3.42 µM (inactive); with SN12C, 2.56 µM (inactive). Besides, the GI50 with NCI-H522 is 2.11 µM (inactive); in the assay on IGROV-1, 2.4 µM (inactive); in the assay with HOP-92, 2.92 µM (inactive); in the assay with NCI-H23, 3.1 µM (inactive); in the assay on SNB-75 it was 4.24 µM (inactive); with A549, 3.64 µM (inactive). Moreover, the GI50 with MDA-N was 2.54 µM (inactive).
